Entries after “also recorded” stand apart in the source; their conditions may differ.

The record followed here is US20080280937A1, “Ligand Conjugates of Vinca Alkaloids, Analogs, and Derivatives” (priority 2005, published 2008).

Series [1] is described as follows: Animal Weight Determination.
Description: Animal Weight Determination. The percentage weight change of the mice was determined in mice (5 mice/group) on the indicated days post-tumor inoculation (PTI) as shown in the graph for the samples described in the related tumor volume assay.
The target of the next series is T1, folate receptors (FRs) (Homo sapiens, UniProt P15328).
T1 construct: FR-positive KB cells were heavily seeded into 24-well cell culture plates; endogenous in cells; host or cells: KB cells
Description: Relative Affinity Assay (displacement of 3H-folic acid on FR-positive KB cells). In kind it is binding. The protocol: Relative Affinity Assay. The affinity of the compounds described herein for folate receptors (FRs) relative to folate was determined according to a previously described method (Westerhof, G. R., J. H. Schornagel, et al. (1995) Mol. Pharm. 48: 459-471) with slight modification. Briefly, FR-positive KB cells were heavily seeded into 24-well cell culture plates and allowed to adhere to the plastic for 18 h. Spent incubation media was replaced in designated wells with folate-free RPMI (FFRPMI) supplemented with 100 nM ^3H-folic acid in the absence and presence of increasing concentrations of test article or folic acid. Cells were incubated for 60 min at 37° C. and then rinsed 3 times with PBS, pH 7.4, followed by the addition of 500 μL of 1% SDS in PBS, pH 7.4. Cell lysates were then collected and added to individual vials containing 5 mL of scintillation cocktail, and then counted for radioactivity. Negative control tubes contained only the ^3H-folic acid in FFRPMI (no competitor). Positive control tubes contained a final concentration of 1 mM folic acid, and CPMs measured in these samples (representing non-specific binding of label) were subtracted from all samples.
(In a radioligand displacement assay an active substance lowers the binding of a labelled ligand.)

A further series deals with M109 tumors. Description: Inhibition of Tumor Growth in Mice, subcutaneous M109 tumors. In kind it is in vivo. The settings on record: Balb/c mice. The protocol: Inhibition of Tumor Growth in Mice. The anti-tumor activity of the compounds described herein, when administered intravenously (i.v.) to tumor-bearing animals, was evaluated in Balb/c mice bearing subcutaneous M109 tumors. Approximately 11 days post tumor inoculation in the subcutis of the right axilla with 1×10^6 M109 cells (tumor volume range at t0=between 60 and 80 mm^3), mice (5/group) were injected i.v. three times a week (TIW), for a defined length of time (e.g., 2-3 weeks) with (a) a defined dose level on a per kilogram body weight basis of a drug delivery conjugate described herein, or (b) an equivalent dose volume of PBS (control). Tumor growth was measured using calipers at 2-day or 3-day intervals in each treatment group. Tumor volumes were calculated using the equation V=a×b^2/2, where “a” is the length of the tumor and “b” is the width expressed in millimeters.

The subject of series [2] is folate receptor-positive KB cells. In kind it is cell-based, human. The protocol: Inhibition of Cellular DNA Synthesis. The compounds described herein were evaluated using an in vitro cytotoxicity assay that predicts the ability of the drug to inhibit the growth of folate receptor-positive KB cells. The compounds were comprised of folate linked to a respective chemotherapeutic drug, as prepared according to the protocols described herein. The KB cells were exposed for predetermined periods of time at 37° C. to the indicated concentrations of folate-drug conjugate in the absence or presence of at least a 100-fold excess of folic acid. The cells were then rinsed with fresh culture medium and incubated in fresh culture medium for 72 hours at 37° C. Cell viability was assessed using a ^3H-thymidine incorporation assay.

Series [3] relates to Folate receptor-negative 4T-1 tumor cells. Nature of the series: 4T-1 Tumor Volume Assay. In kind it is in vivo, Balb/c mice. The conditions noted are these: 3 μmol/kg TIW for 3 weeks. The source says:
4T-1 Tumor Volume Assay. Six to seven week-old mice (female Balb/c strain) were obtained from Harlan, Inc., Indianapolis, Ind. The mice were maintained on Harlan's folate-free chow for a total of three weeks prior to the onset of and during this experiment. Folate receptor-negative 4T-1 tumor cells (1×10^6 cells per animal) were inoculated in the subcutis of the right axilla. Approximately 5 days post tumor inoculation when the 4T-1 tumor average volume was ˜100 mm^3, mice (5/group) were injected i.v. three times a week (TIW), for 3 weeks with 3 μmol/kg of drug delivery conjugate or with an equivalent dose volume of PBS (control). Tumor growth was measured using calipers at 2-day or 3-day intervals in each treatment group. Tumor volumes were calculated using the equation V=a×b^2/2, where “a” is the length of the tumor and “b” is the width expressed in millimeters.

T1 sequence (P15328 25-234): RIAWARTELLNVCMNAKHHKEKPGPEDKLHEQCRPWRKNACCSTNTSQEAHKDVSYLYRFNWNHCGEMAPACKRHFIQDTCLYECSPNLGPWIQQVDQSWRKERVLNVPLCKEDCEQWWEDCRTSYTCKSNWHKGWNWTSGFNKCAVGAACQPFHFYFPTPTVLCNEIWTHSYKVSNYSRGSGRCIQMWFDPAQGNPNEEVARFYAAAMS

Take `CC[C@]1(O)C[C@H]2CN(CCc3c([nH]c4ccccc34)[C@@](C(=O)OC)(c3cc4c(cc3OC)N(C)[C@H]3[C@@](O)(C(=O)NN=CCOCCOCCN5C(=O)CC(SC[C@H](NC(=O)[C@H](CC(=O)O)NC(=O)[C@H](CC(=O)O)NC(=O)[C@H](CCCNC(=N)N)NC(=O)[C@H](CC(=O)O)NC(=O)CC[C@H](NC(=O)c6ccc(NCc7cnc8nc(N)[nH]c(=O)c8n7)cc6)C(=O)O)C(=O)O)C5=O)[C@H](O)[C@]5(CC)C=CCN6CC[C@]43[C@@H]65)C2)C1` (some centres unmarked) [Example 6]: the “weight of nu/nu mice” value in series [1] (5 μmol/kg for 3 weeks (FIG. 16B)) is recorded as “absence of an effect”; in series [1] (10 μmol/kg TIW for 3 weeks (FIG. 5B)), “does not affect the weight of the mice; also recorded: absence of an effect”; in series [1] (1, 5, and 10 μmol/kg TIW for 3 weeks (FIG. 6B)), “little effect on the weight of the mice; also recorded: absence of an effect”. Besides, the weight of mice result in series [1] (10 μmol/kg TIW for 3 weeks (FIG. 7B)) is reported as “absence of an effect”. In addition, in series [1] (10 μmol/kg for 3 weeks (FIG. 14B)), the “weight of Balb/c mice” value is “absence of an effect”. For the same compound, the “relative binding affinity versus folic acid at folic acid receptors” value on folate receptors (FRs) (figure legends, folic acid = 1.0, 1 hour at 37° C) was 0.35. Further, the “Relative Folate Receptor Affinity” value at folate receptors (FRs) (summary table) was found to be 0.31. The “growth of M109 tumors” value in the series with M109 tumors (1.5 μmol/kg TIW) is reported as “inhibits the growth of solid tumors”; in the series with M109 tumors (3 μmol/kg TIW for 3 weeks), “inhibits the growth of solid M109 tumors”; in the series with M109 tumors (10 μmol/kg TIW for 3 weeks) it was “inhibits the growth of solid tumors”. Besides, the IC50 in series [2] (KB cells, without excess folic acid, read-out: IC50, 3H-thymidine incorporation in KB cells) came out at 14 nM. For the same compound, the “Folate Receptor Competition” value in series [2] (summary table) was “Yes”. Further, in series [2] (with versus without at least 100-fold excess of folic acid), the “competition by excess folic acid of effect on 3H-thymidine incorporation” value is “folate competes”. Moreover, the “growth of FR-negative 4T-1 tumors” value in series [3] is listed as “not folate receptor (FR)-negative tumors; also recorded: absence of activity”.
